What was measured:
Assay type in all cases: cell-based, human
U937 cells [1] = experiment: Alkaline comet assay; details: U937, 72 h
Description: (§1) FIG. 11: XB05 Induces DNA Damage in Malignant Cells. (A) Alkaline comet assays for detection of DNA damage for cells treated as indicated for 72 h. TBHP was a positive control for oxidative DNA damage. Decreased DNA fluorescence in nucleoid comet heads (arrows) and increased smearing of DNA into comet tails (asterisks) is indicated. Scale bar, 400 μm. Data shown are representative of at least two individual experiments for each cell line. (B) Western blot analysis for γ-H2AX and GAPDH (loading control) in whole cell extracts from cells treated with vehicle, UV irradiation (800 μJ, positive control for DSBs), or XB05 (1 μM for U937, 2 μM for A549) after 24 h. Images shown are representative of three individual experiments in each cell line. (C) Flow cytometric detection of γ-H2AX in cells treated as described in part B. Bar graph represents mean+/−SEM for 3 individual experiments in each cell line. Statistical comparison indicated significant differences between vehicle and XB05-treated groups in both cell lines (*p≦0.05).
(§2) Comet Assays. Cells were washed once with ice cold PBS, harvested as described and re-suspended at 1×10^5 cells/mL in PBS. As a positive control, cells were incubated with 100 μM tert-butyl hydrogen peroxide (TBHP) for 30 mins (U937, A549) or 1 h (Hs27) at 4° C. prior to harvesting. Comet assays were performed using the CometAssay Kit (Trevigen, Gaithersburg, Md.) according to the manufacturer's instructions. Cells were visualized and digital images captured on an EVOSfI Digital Fluorescent Microscope equipped with a fluorescein light cube.

Hs27 cells = experiment: Alkaline comet assay; details: Hs27, 72 h
Description: as §1, §2

A549 cells [2] = experiment: Alkaline comet assay; details: A549, 72 h
Description: as §1, §2

U937 cells [3] = experiment: Western blot for PARP-1 and caspase-3 cleavage; details: U937, 1 μM XB05
Description: (§3) FIG. 3: XB05 Induces Apoptotic and Nonapoptotic Cell Death in Malignant Cell Lines. (A) Trypan blue exclusion assay for three human cell lines following treatment with XB05 for 72 h at the concentrations indicated. Data points represent the mean+/−SEM for three independent experiments. (B) Representative phase contrast microscopy images of cells treated with vehicle (72 h), XB05 (72 h with 1 μM for U937 and Hs27, or 2 μM for A549), or 6 μg/mL camptothecin (U937 for 6 h, A549 and Hs27 for 48 h). Cells undergoing apoptotic (black arrows) or non-apoptotic (white arrows) cell death are indicated. (C) Whole cell extracts from cells treated with vehicle, camptothecin, or XB05, as described in part B were western blotted for biochemical markers of apoptosis and GAPDH (loading control). […]
(§4) Western Blotting. […] Proteins were detected using the following primary antibody concentrations: PARP-1 (1:1000), cleaved caspase-3 (1:1000), γ-H2AX (Ser139) ([…]), phospho-eIF2α (Ser51) (1:1000), eIF2α (1:1000), Bip (1:1000), Nrf2 (1:1000), Ku-70 (1:1000) and GAPDH (1:1000). […] Where indicated, band intensities were quantified using the UN-SCAN-IT Gel digitizing software (Silk Scientific, Orem Utah) and normalized to vehicle control.

A549 cells [4] = experiment: Western blot for PARP-1 and caspase-3 cleavage; details: A549, 2 μM XB05
Description: as §3, §4

CCCCCC(O)C#CC(F)(F)Br (centres unmarked) [XB05]
DNA damage (comet tails) (U937 cells [1]): comet tails
DNA damage (comet tails) (Hs27 cells): no evidence of DNA damage
DNA damage (comet tails) (A549 cells [2]): comet tails
time at which PARP-1 and caspase-3 cleavage were apparent (U937 cells [3]): ≤ 24 h
time at which PARP-1 and caspase-3 cleavage were apparent (A549 cells [4]): 48 h

Source: patent publication US9737493B2, “Compositions and methods for modulating DNMT1 inhibitor activity” (University of Louisville Research Foundation, Inc., priority 2012, dated 2017)
